Test results from patent publication US7273856B2, “Linear basic compounds having NK-2 antagonist activity and formulations thereof” (Menarini Ricerche S.P.A., priority 2001, dated 2007).

Biological target: T1, human NK-2 receptor (Homo sapiens, UniProt P21452)
T1 construct: expressed in transfected cells; host or cells: CHO (Chinese hamster ovary) cells, membranes
T1 sequence (P21452 1-398): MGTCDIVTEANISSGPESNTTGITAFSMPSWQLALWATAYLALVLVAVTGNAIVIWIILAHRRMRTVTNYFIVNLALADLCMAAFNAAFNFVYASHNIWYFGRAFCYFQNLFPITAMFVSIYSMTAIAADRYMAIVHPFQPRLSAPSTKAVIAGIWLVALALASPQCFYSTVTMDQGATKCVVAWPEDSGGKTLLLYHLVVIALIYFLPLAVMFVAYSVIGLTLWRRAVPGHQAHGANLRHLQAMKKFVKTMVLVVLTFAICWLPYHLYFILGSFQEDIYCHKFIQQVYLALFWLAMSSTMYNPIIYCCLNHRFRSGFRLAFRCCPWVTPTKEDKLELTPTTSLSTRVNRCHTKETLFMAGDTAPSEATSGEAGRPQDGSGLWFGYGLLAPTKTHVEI
Experiment: binding test, affinity for the human NK-2 receptor, competition with [125I]NKA on transfected CHO cell membranes
Conditions: CHO cell membranes transfected with NK-2 receptor of human ileum; [125I]NKA 100 pM; 30 min, 20° C.
Procedure: The evaluation of the antagonist activity on NK-2 receptors has been assessed by binding and functional tests according to that already described in literature in relation to NK-2 antagonists.
The test substances have been tested within a concentration range from 0.01 nM to 10 nM. At the end of the incubation time (30 min, 20° C.) the samples have been filtered and radioactivity has been determined using a gamma-counter.

| Compound | Ki | pKi |
| --- | --- | --- |
| O=C(NC1(C(=O)N[C@H](Cc2ccccc2)C(=O)NCC2CCN(CC3CCOCC3)CC2)CCCC1)c1cc2cccc(Br)c2s1 [Example 131, 7-Bromo-benzo[b]thiophene-2-carboxylic acid [1-(2-phenyl-1R-{[1-(tetrahydro-pyran-4-ylmethyl)-piperidin-4-ylmethyl]-carbamoyl}-ethylcarbamoyl)-cyclopentyl]-amide] | 0.0398 nM | – |
| O=C(NC1(C(=O)N[C@H](Cc2ccccc2)C(=O)NCC2CCN(CC3CCOCC3)CC2)CCCC1)c1cc2cccc(I)c2s1 [Example 132, 7-Iodo-benzo[b]thiophene-2-carboxylic acid [1-(2-phenyl-1R-{[1-(tetrahydro-pyran 4-ylmethyl)-piperidin-4-ylmethyl]-carbamoyl}-ethylcarbamoyl)-cyclopentyl]-amide] | 0.0316 nM | – |
| Cc1cccc2cc(C(=O)NC3(C(=O)N[C@H](Cc4ccccc4)C(=O)NCC4CCN(CC5CCOCC5)CC4)CCCC3)sc12 [Example 134, 7-Methyl-benzo[b]thiophene-2-carboxylic acid [1-(2-phenyl-1R-{[1-(tetrahydro-pyran-4-ylmethyl)-piperidin-4-ylmethyl]-carbamoyl}-ethylcarbamoyl)-cyclopentyl]-amide] | 0.0631 nM | – |
| O=C(NC1(C(=O)N[C@H](Cc2ccccc2)C(=O)NCC2CCN(CC3CCOCC3)CC2)CCCC1)c1cc2cccc(C(F)(F)F)c2s1 [Example 136, 7-Trifluoromethyl-benzo[b]thiophene-2-carboxylic acid [1-(2-phenyl-1R-{[1-(tetrahydro-pyran-4-ylmethyl)piperidin-4-ylmethyl]-carbamoyl}-ethylcarbamoyl)-cyclopentyl]-amide] | 0.0631 nM | – |
| O=C(NC1(C(=O)N[C@H](Cc2ccccc2)C(=O)NCC2CCN(CC3CCOCC3)CC2)CCCC1)c1cc2cccc(Cl)c2s1 [Example 137, 7-Chloro-benzo[b]thiophene-2-carboxylic acid [1-(2-phenyl-1R-{[1-(tetrahydro-pyran-4-ylmethyl)-piperidin-4-ylmethyl]-carbamoyl}-ethylcarbamoyl)-cyclopentyl]-amide] | 0.0794 nM | – |
| Cc1ccc2sc(C(=O)NC3(C(=O)N[C@H](Cc4ccccc4)C(=O)NCC4CCN(CC5CCOCC5)CC4)CCCC3)cc2c1 [Example 138, 5-Methyl-benzo[b]thiophene-2-carboxylic acid [1-(2-phenyl-1R-{[1-(tetrahydro-pyran-4-ylmethyl)piperidin-ylmethyl]-carbamoyl}-ethylcarbamoyl)-cyclopentyl]-amide] | – | 9.8 |
| CCN(CC)c1ccc2cc(C(=O)NC3(C(=O)N[C@H](Cc4ccccc4)C(=O)NCC4CCN(CC5CCOCC5)CC4)CCCC3)oc2c1 [Example 145, 6-Diethylamino-benzofuran-2-carboxylic acid [1-(2-phenyl-1-{[1R-(tetrahydro-pyran-4-ylmethyl)-piperidin-4-ylmethyl)-carbamoyl}-ethylcarbamoyl)-cyclopentyl]-amide] | 0.501 nM | – |
| COc1ccc2oc(C(=O)NC3(C(=O)N[C@H](Cc4ccccc4)C(=O)NCC4CCN(CC5CCOCC5)CC4)CCCC3)cc2c1 [Example 146, 5-Methoxy-benzofuran-2-carboxylic acid [1-(2-phenyl-1-{[1R-(tetrahydro-pyran-4-ylmethyl)-piperidin-4-ylmethyl]-carbamoyl}-ethylcarbamoyl)-cyclopentyl]-amide] | 0.398 nM | – |
| CCN(CC)c1ccc2oc(C(=O)NC3(C(=O)N[C@H](Cc4ccccc4)C(=O)NCC4CCN(CC5CCOCC5)CC4)CCCC3)cc2c1 [Example 147] | 0.631 nM | – |
| Cc1cc2oc(C(=O)NC3(C(=O)N[C@H](Cc4ccccc4)C(=O)NCC4CCN(CC5CCOCC5)CC4)CCCC3)c(C)c2cc1C [Example 148, 3,5,6-Trimethyl-benzofuran-2-carboxylic acid [1-(2-phenyl-1-{[1R-(tetrahydro-pyran-4-ylmethyl)-piperidin-4-ylmethyl]-carbamoyl}-ethylcarbamoyl)-cyclopentyl]-amide] | 0.316 nM | – |
| O=C(NC1(C(=O)NC(Cc2ccccc2)C(=O)NCC2CCN(CC3CCOCC3)CC2)CCCC1)c1ccc2ccccc2c1 (stereo not drawn) [Example 149, Naphthalene-2-carboxylic acid [1-(2-phenyl-1-{[1R-(tetrahydro-pyran-4-ylmethyl)-piperidin-4ylmethyl]-carbamoyl}-ethylcarbamoyl)-cyclopentyl]-amide] | – | 9.9 |
| O=C(NC1(C(=O)N[C@H](Cc2ccccc2)C(=O)NCC2CCN(CC3CCOCC3)CC2)CCCC1)c1ccc2ccccc2c1 [Example 151, Naphthalene-2-carboxylic acid [1-(2-phenyl-1R-{[1-(tetrahydro-pyran-4-ylmethyl)-piperidin-4-ylmethyl]-carbamoyl}-ethylcarbamoyl)-cyclopentyl]-amide] | 1.26 nM | – |
| O=C(NC1(C(=O)N[C@H](Cc2ccccc2)C(=O)NCC2CN(CC3CCOCC3)C2)CCCC1)c1cc2ccccc2s1 [Example 152, Benzo[b]thiophene-2-carboxylic acid [1-(2-phenyl-1(R)-{[1-(tetrahydro-pyran-4-ylmethyl)-azetidin-3-ylmethyl]-carbamoyl}-ethylcarbamoyl)-cyclopentyl]-amide] | 0.126 nM | – |
| Benzo[b]thiophene-2-carboxylic acid [1-(2-phenyl-1(R)-{[1-(tetrahydro-pyran-4-yl)-piperidin-4-ylmethyl]-carbamoyl}-ethylcarbamoyl)-cyclopentyl]-amide [Example 73] | – | 9.3 |
| N^γ{N^α[N^α(benzo[b]thiophen-2-ylcarbonyl)-1-aminocyclopentan-1-carboxy]-D-phenylalanyl}-(1R,3S)-3-aminocyclopentane-1-carboxylic-acid-N-((1S,2S)2-dimethylaminocyclohexyl) amide hydrochloride salt [Example 8] | – | 9.6 |
